Entries after “also recorded” stand apart in the source; their conditions may differ. One block for each compound: values may come before it.
Tests used:
OR-S6/S79 = assay: CRE-luciferase reporter gene assay, OR-S6/S79; assay type: cell-based, mouse; settings: Hana3A cells
Protocol: Four ORs (S6/79, S18, S46 and S50) previously assayed using other techniques (see, e.g., Malnic, B., et al. (1999) Cell 96, 713-723; herein incorporated by reference in its entirety) were tested against an assay panel of aliphatic alcohols, aldehydes and acids and some other odorants. Additionally, five “orphan” class I ORs (MOR23-1, MOR31-4, MOR31-6, MOR32-5 and MOR32-11) whose cognate ligands were unknown were tested. At a suprathreshold concentration of 100 uM, all these ORs were odorant selective, responding to only a small subset of the odorants tested (see FIG. 11A). This specificity was retained at lower, more physiologically relevant concentrations. Many of these ORs responded to odorants present in micromolar concentrations. The cell-surface expression of these ORs by living-cell immunofluorescence were evaluated. Some ORs (S18, MOR31-4, MOR31-6 and MOR32-5) were strongly expressed while other ORs (S6, S50, MOR23-1, MOR32-11) were weakly expressed (see FIG. 12). The present invention is not limited to a particular mechanism. Indeed, an understanding of the mechanism is not necessary to practice the present invention. […] Finally, two additional orphan class II ORs, MOR203-1 and olfr62, were tested against a panel of 139 odorants. […] Olfr62 responded to coumarine and piperonal (see FIG. 11C). […] When parental 293T cells for these ORs were used in this luciferase assay, little or no response to the odorants was observed. The present invention is not limited to a particular mechanism. Indeed, an understanding of the mechanism is not necessary to practice the present invention.
An expression system has been established that permits rapid identification of ligands for ORs. This system was tested with twelve ORs. Four of the tested ORs (S6/S79, S18, S46, and S50) were expressed in single olfactory neurons responding to aliphatic odorants (see, e.g., Malnic, B., et al. (1999) Cell 96, 713-723; herein incorporated by reference in its entirety). The response profiles of OR-S50, but not that of OR-S18 agreed with the previous report (see, e.g., Malnic, B., et al. (1999) Cell 96, 713-723; herein incorporated by reference in its entirety). […] In experiments conducted during the course of the present invention, OR-S6/S79 responded to nonanedioic acid but not to heptanoic acid or octanoic acid. The present invention is not limited to a particular mechanism. […] When multiple single olfactory neurons that expressed the same OR were recorded against the same set of odorants using calcium imaging, their response profiles were similar but different (see, e.g., Bozza, T., et al. (2002) J Neurosci 22, 3033-3043; herein incorporated by reference in its entirety).
(§1) Dual-Glo system (Promega) for luciferase assay was used. […] Luminescence was measured using Wallac Victor 1420 (Perkin-Elmer). […]

[1] = system: olfactory neurons S6 and S79; settings: previous studies (Malnic 1999); cited from earlier work
OR-S50 = assay: CRE-luciferase reporter gene assay, OR-S50; assay type: cell-based, mouse
Text: (§2) To facilitate analysis of odorant-OR interactions, 293T cell lines were established which stably express REEP1, RTP1, RTP2 and Gαolf, the G protein alpha subunit that couples to OR (see, e.g., Belluscio, L., et al. (1998) Neuron 20, 69-81; Jones, D. T., and Reed, R. R. (1989). Science 244, 790-795; each herein incorporated by reference in their entireties). To establish such cells, linearized expression vectors containing mouse REEP1, RTP1, RTP2 and Gαolf ORFs were transfected into 293T cells with PGK-Pac (puromycin resistant gene) (see, e.g., Watanabe, S., et al. (1995) Biochem Biophys Res Commun 213, 130-137; herein incorporated by reference in its entirety). […] Enhanced cell-surface expression was observed when OREG or other ORs were transfected in Hana3A cells and immunostained (see FIG. 10). […] Expression of Gαolf alone in 293T cells had little or no effect on OR activation using this assay.
(§3) Dual-Glo system (Promega) for luciferase assay was used. CRE-Luciferase (Stratagene) was used to measure the receptor activities. […] Luminescence was measured using Wallac Victor 1420 (Perkin-Elmer). Normalized luciferase activity was calculated as [Luc (N)-Luc (0)]/RL (N), where Luc (N)=Luminescent count of a certain well, Luc (0)=Luminescent count without odorant for each OR, and RL (N)=Luminescent count of Renilla Luciferase of each well. […]

OR-S46 = assay: CRE-luciferase reporter gene assay, OR-S46; assay type: cell-based, mouse; settings: Hana3A cells
Text: To facilitate analysis of odorant-OR interactions, 293T cell lines were established which stably express REEP1, RTP1, RTP2 and Gαolf, the G protein alpha subunit that couples to OR (see, e.g., Belluscio, L., et al. (1998) Neuron 20, 69-81; Jones, D. T., and Reed, R. R. (1989). Science 244, 790-795; each herein incorporated by reference in their entireties). To establish such cells, linearized expression vectors containing mouse REEP1, RTP1, RTP2 and Gαolf ORFs were transfected into 293T cells with PGK-Pac (puromycin resistant gene) (see, e.g., Watanabe, S., et al. (1995) Biochem Biophys Res Commun 213, 130-137; herein incorporated by reference in its entirety). […] Enhanced cell-surface expression was observed when OREG or other ORs were transfected in Hana3A cells and immunostained (see FIG. 10). […]
Four ORs (S6/79, S18, S46 and S50) previously assayed using other techniques (see, e.g., Malnic, B., et al. (1999) Cell 96, 713-723; herein incorporated by reference in its entirety) were tested against an assay panel of aliphatic alcohols, aldehydes and acids and some other odorants. […] The cell-surface expression of these ORs by living-cell immunofluorescence were evaluated. […]
as §1

MOR203-1 = assay: CRE-luciferase reporter gene assay, MOR203-1; assay type: cell-based, mouse; settings: Hana3A cells
Protocol: (§4) Four ORs (S6/79, S18, S46 and S50) previously assayed using other techniques (see, e.g., Malnic, B., et al. (1999) Cell 96, 713-723; herein incorporated by reference in its entirety) were tested against an assay panel of aliphatic alcohols, aldehydes and acids and some other odorants. Additionally, five “orphan” class I ORs (MOR23-1, MOR31-4, MOR31-6, MOR32-5 and MOR32-11) whose cognate ligands were unknown were tested. At a suprathreshold concentration of 100 uM, all these ORs were odorant selective, responding to only a small subset of the odorants tested (see FIG. 11A). This specificity was retained at lower, more physiologically relevant concentrations. Many of these ORs responded to odorants present in micromolar concentrations. The cell-surface expression of these ORs by living-cell immunofluorescence were evaluated. Some ORs (S18, MOR31-4, MOR31-6 and MOR32-5) were strongly expressed while other ORs (S6, S50, MOR23-1, MOR32-11) were weakly expressed (see FIG. 12). […]
as §3, with “used.” for “used. CRE-Luciferase (Stratagene) was used to measure the receptor activities.”

MOR23-1 = assay: CRE-luciferase reporter gene assay, MOR23-1; assay type: cell-based, mouse; settings: Hana3A cells
Protocol: as §4
as §3, with “used.” for “used. CRE-Luciferase (Stratagene) was used to measure the receptor activities.”

MOR31-4 = assay: CRE-luciferase reporter gene assay, MOR31-4; assay type: cell-based, mouse; settings: Hana3A cells
Protocol: as §4
as §3, with “used.” for “used. CRE-Luciferase (Stratagene) was used to measure the receptor activities.”

[2] = target: T1, mouse odorant receptor OREG (Mus musculus, UniProt Q920P2); assay: CRE-luciferase reporter gene assay, OREG; assay type: cell-based
T1 construct: expressed in transfected cells; host or cells: 293T cells (with or without co-transfected REEP1/RTP1/RTP2) and Hana3A cells (293T stably expressing mouse REEP1, RTP1, RTP2, Galpha-olf)
T1 sequence (Q920P2 1-313): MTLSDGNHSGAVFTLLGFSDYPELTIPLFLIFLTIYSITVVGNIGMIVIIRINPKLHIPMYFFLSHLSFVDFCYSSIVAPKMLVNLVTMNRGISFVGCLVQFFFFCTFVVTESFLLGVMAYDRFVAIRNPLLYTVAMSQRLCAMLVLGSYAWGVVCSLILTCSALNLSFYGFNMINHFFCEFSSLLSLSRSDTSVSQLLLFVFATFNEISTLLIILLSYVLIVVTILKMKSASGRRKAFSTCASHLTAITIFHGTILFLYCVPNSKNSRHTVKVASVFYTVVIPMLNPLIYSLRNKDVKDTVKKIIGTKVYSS
Text: Poor odorant evoked signaling activity in heterologous cell culture systems expressing ORs has been attributed to the poor cell surface expression of ORs. The identification of REEP and/or RTP allowed a direct assessment of this issue. A luciferase reporter gene assay was employed in which a cAMP responsive element (CRE) mediated luciferase gene expression (see FIG. 8A). Because OR activation leads to an increase in cAMP, activation of the mouse odorant receptor OREG by its ligand eugenol was measured in the presence and absence of REEP and/or RTP (see, e.g., Kajiya, K., et al. (2001) J Neurosci 21, 6018-6025; Touhara, K., et al., (1999) Proc Natl Acad Sci USA 96, 4040-4045; each herein incorporated by reference in their entireties). As reported previously, eugenol increased levels of OREG dependent luciferase activity (see, e.g., Katada, S., et al. (2003) Biochem Biophys Res Commun 305, 964-969; herein incorporated by reference in its entirety).
as §2
Dual-Glo system (Promega) for luciferase assay was used. CRE-Luciferase (Stratagene) was used to measure the receptor activities. Renilla luciferase driven by constitutively active SV40 promoter (pRL-SV40: Promega) was used as an internal control. Cells were plated on poly-D-lysine coated 96 well plates (BIOCOAT, Beckton Dickinson). After 8 hours (for experiments shown in FIGS. 8B and 8C) or 12 hours (for experiments shown in FIG. 8D and FIG. 11) after transfection, the medium was replaced with CD293 chemically defined medium (Invitrogen) and the plates were incubated for one hour at 37 degrees C. The medium was replaced with 50 ul of odorant solutions dissolved in CD293 and incubated for 10 hours (for experiments shown in FIGS. 8B and 8C) or 4 hours (for experiments shown in FIG. 8D and FIG. 11) at 37 degrees C. The manufacture's protocol for measuring luciferase and Renilla luciferase activities was followed. Luminescence was measured using Wallac Victor 1420 (Perkin-Elmer). Normalized luciferase activity was calculated as [Luc (N)-Luc (0)]/RL (N), where Luc (N)=Luminescent count of a certain well, Luc (0)=Luminescent count without odorant for each OR, and RL (N)=Luminescent count of Renilla Luciferase of each well. For cAMP assays, cells were plated onto 24-well plate. […]. Prism software (Graphpad) was used for data analysis.

OREG = target: T2, OREG (Mus musculus, UniProt Q920P2); assay: cAMP assay, OREG; assay type: cell-based; settings: OREG transfected; Hana3A cells vs 293T cells expressing Gαolf
T2 construct: expressed in transfected cells; host or cells: Hana3A cells, or HEK293T cells co-transfected with Golf
T2 sequence (Q920P2 1-313): T1 sequence (Q920P2 1-313)
Protocol: In order to confirm the increased OR function in the presence of REEP1, RTP1 and RTP2, the amount of cAMP upon ligand stimulation was measured using 293T cells expressing Gαolf and Hana3A cells. […] In contrast, when the β2 adrenergic receptor was expressed and isoproterenol was used, no significant differences in cAMP production were observed (see FIG. 8E). The present invention is not limited to a particular mechanism. Indeed, an understanding of the mechanism is not necessary to practice the present invention. Nonetheless, this further supports a specific role of the accessory proteins in functional OR expression.
as §3, with “activities. Renilla luciferase driven by constitutively active SV40 promoter (pRL-SV40: Promega) was used as an internal control. Cells were plated on poly-D-lysine coated 96 well plates (BIOCOAT, Beckton Dickinson).” for “activities.”

response of OR-S6/S79 to odorant (luciferase) (OR-S6/S79): not
Compound: CCCCCCC(=O)O [heptanoic acid, Heptanoic acid]
response of single olfactory neurons S6 and S79 to odorant [1]: only the olfactory neuron S79 responded

response of OR-S6/S79 to odorant (luciferase) (OR-S6/S79): not
Compound: CCCCCCCC(=O)O [octanoic acid]
response of single olfactory neurons S6 and S79 to odorant [1]: only the olfactory neuron S79 responded

luciferase response (OR-S50; OR-S50 in 293T cells): did not produce a luciferase response
luciferase activity (OR-S50; OR-S50 in Hana3A cells): robust luciferase activity
response of OR-S6/S79 to odorant (luciferase) (OR-S6/S79): responded
Compound: O=C(O)CCCCCCCC(=O)O [nonanedioic acid]
response of single olfactory neurons S6 and S79 to odorant [1]: both responded

response of S46 to odorant (luciferase) (OR-S46): responded
response of MOR203-1 to odorant (luciferase) (MOR203-1): responded to high concentrations
response of MOR23-1 to odorant (luciferase) (MOR23-1): responded
response of MOR31-4 to odorant (luciferase) (MOR31-4): responded
Compound: CCCCCCCCC(=O)O [nonanoic acid, Nonanoic acid]

Compound: C=CCc1ccc(O)c(OC)c1 [eugenol, reference compound]
luciferase induction ([2]; HA-OREG in 293T cells): Little luciferase induction was observed
luciferase activity ([2]; HA-OREG in Hana3A cells): an enhancement in luciferase activity was observed
OREG dependent luciferase activity ([2]; odorant applied, OREG in 293T cells with or without REEP and/or RTP): increased
cAMP production (OREG): Enhanced cAMP production; also recorded: more cAMP was produced
